Reference: ChEMBL document CHEMBL5634163, “Anti-Ferroptotic Effect of Cannabidiol in Human Skin Keratinocytes Characterized by Data-Independent Acquisition-Based Proteomics” (J Nat Prod, 2024)
The source made the active and inactive calls. The rule behind the calls is not given here.

Experiments:
HaCaT [1] = assay: Anti-ferroptotic effect against erastin-induced cytotoxicity in human HaCaT cells assessed as cell viability at 10 uM preincubated for 4 hrs followed by erastin addition measured after 24 hrs by MTT assay (reference value: 23 %); assay type: functional; conditions: time 28 hrs, read-out: Activity
HaCaT [2] = assay: Anti-ferroptotic effect against erastin-induced cytotoxicity in human HaCaT cells assessed as cell viability at 10 uM preincubated for 4 hrs followed by erastin addition measured after 24 hrs by MTT assay relative to control; assay type: functional; conditions: for Activity: time 28.0 hrs; for viability at 10 µM: time 28 hrs, read-out: Activity
[3] = Antioxidant activity assessed as free radical scavenging activity at 100 uM incubated for 30 mins in dark by DPPH assay relative to control; assay type: functional
[4] = Iron-chelating activity of compound at 500 uM incubated for 10 mins by absorbance based assay relative to control; assay type: functional
[5] = Antioxidant activity assessed as free radical scavenging activity incubated for 30 mins in dark by DPPH assay; assay type: functional
HaCaT [6] = assay: Anti-ferroptotic effect against erastin-induced cytotoxicity in human HaCaT cells assessed as cell viability at 0.08 uM preincubated for 4 hrs followed by erastin addition measured after 24 hrs by MTT assay (reference value: 23 %); assay type: functional; conditions: time 28 hrs, read-out: Activity
HaCaT [7] = assay: Anti-ferroptotic effect against erastin-induced cytotoxicity in human HaCaT cells assessed as cell viability at 0.16 uM preincubated for 4 hrs followed by erastin addition measured after 24 hrs by MTT assay (reference value: 23 %); assay type: functional; conditions: time 28 hrs, read-out: Activity
HaCaT [8] = assay: Anti-ferroptotic effect against erastin-induced cytotoxicity in human HaCaT cells assessed as cell viability at 0.31 uM preincubated for 4 hrs followed by erastin addition measured after 24 hrs by MTT assay (reference value: 23 %); assay type: functional; conditions: time 28 hrs, read-out: Activity
HaCaT [9] = assay: Anti-ferroptotic effect against erastin-induced cytotoxicity in human HaCaT cells assessed as cell viability at 0.63 uM preincubated for 4 hrs followed by erastin addition measured after 24 hrs by MTT assay (reference value: 23 %); assay type: functional; conditions: time 28 hrs, read-out: Activity
HaCaT [10] = assay: Anti-ferroptotic effect against erastin-induced cytotoxicity in human HaCaT cells assessed as cell viability at 1.25 uM preincubated for 4 hrs followed by erastin addition measured after 24 hrs by MTT assay (reference value: 23 %); assay type: functional; conditions: time 28 hrs, read-out: Activity
HaCaT [11] = assay: Anti-ferroptotic effect against erastin-induced cytotoxicity in human HaCaT cells assessed as cell viability at 2.5 uM preincubated for 4 hrs followed by erastin addition measured after 24 hrs by MTT assay (reference value: 23 %); assay type: functional; conditions: time 28 hrs, read-out: Activity
HaCaT [12] = assay: Anti-ferroptotic effect against erastin-induced cytotoxicity in human HaCaT cells assessed as cell viability at 5 uM preincubated for 4 hrs followed by erastin addition measured after 24 hrs by MTT assay (reference value: 23 %); assay type: functional; conditions: time 28 hrs, read-out: Activity
HaCaT [13] = assay: Reversal of erastin-induced ROS level in human HaCaT cells at 0.6 uM preincubated for 24.5 hrs followed by erastin addition measured after 4 hrs by DC-FDA probe based assay (reference value: 23 %); assay type: functional; conditions: time 28.5 hrs
HaCaT [14] = assay: Reversal of erastin-induced ROS level in human HaCaT cells at 2.5 uM preincubated for 24.5 hrs followed by erastin addition measured after 4 hrs by DC-FDA probe based assay (reference value: 23 %); assay type: functional; conditions: time 28.5 hrs
HaCaT [15] = assay: Reversal of erastin-induced ROS level in human HaCaT cells at 10 uM preincubated for 24.5 hrs followed by erastin addition measured after 4 hrs by DC-FDA probe based assay (reference value: 23 %); assay type: functional; conditions: time 28.5 hrs
HaCaT [16] = assay: Reversal of erastin-induced lipid peroxidation in human HaCaT cells at 0.6 uM preincubated for 4 hrs followed by erastin addition measured after 24 hrs by flow cytometry (reference value: 47 %); assay type: functional; conditions: time 28 hrs
HaCaT [17] = assay: Reversal of erastin-induced lipid peroxidation in human HaCaT cells at 2.5 uM preincubated for 4 hrs followed by erastin addition measured after 24 hrs by flow cytometry (reference value: 47 %); assay type: functional; conditions: time 28 hrs
HaCaT [18] = assay: Reversal of erastin-induced lipid peroxidation in human HaCaT cells at 10 uM preincubated for 4 hrs followed by erastin addition measured after 24 hrs by flow cytometry (reference value: 47 %); assay type: functional; conditions: time 28 hrs
HaCaT [19] = assay: Suppression of erastin-induced intracellular Fe2+ level in human HaCaT cells at 0.6 uM preincubated for 24 hrs followed by erastin addition measured after 24 hrs by FerroOrange probe based assay (reference value: 25 %); assay type: functional; conditions: time 48 hrs
HaCaT [20] = assay: Suppression of erastin-induced intracellular Fe2+ level in human HaCaT cells at 2.5 uM preincubated for 24 hrs followed by erastin addition measured after 24 hrs by FerroOrange probe based assay (reference value: 25 %); assay type: functional; conditions: time 48 hrs
HaCaT [21] = assay: Reversal of erastin-induced iron level in human HaCaT cells at 2.5 uM preincubated for 24 hrs followed by erastin addition measured after 24 hrs by FerroOrange probe based assay (reference value: 43 %); assay type: functional; conditions: time 48 hrs
HaCaT [22] = assay: Reversal of erastin-induced iron level in human HaCaT cells at 10 uM preincubated for 24 hrs followed by erastin addition measured after 24 hrs by FerroOrange probe based assay (reference value: 43 %); assay type: functional; conditions: time 48 hrs
HaCaT [23] = assay: Effect on GSH level in human HaCaT cells at 2.5 uM; assay type: functional, cell-based
HaCaT [24] = assay: Reversal of erastin-induced FXR2 level in human HaCaT cells; assay type: functional, cell-based
HaCaT [25] = assay: Reversal of erastin-induced LIG3 level in human HaCaT cells; assay type: functional, cell-based
HaCaT [26] = assay: Reversal of erastin-induced DDX60 level in human HaCaT cells; assay type: functional, cell-based
HaCaT [27] = assay: Reversal of erastin-reduced RPL7A level in human HaCaT cells; assay type: functional, cell-based
HaCaT [28] = assay: Reversal of erastin-reduced CSNK2B level in human HaCaT cells; assay type: functional, cell-based
HaCaT [29] = assay: Reversal of erastin-reduced LGALS3 level in human HaCaT cells; assay type: functional, cell-based
HaCaT [30] = assay: Suppression of erastin-induced intracellular Fe2+ level in human HaCaT cells at 10 uM preincubated for 24 hrs followed by erastin addition measured after 24 hrs by FerroOrange probe based assay (reference value: 25 %); assay type: functional; conditions: time 48 hrs

## CCOC(=O)c1ccc(NC2CCCCC2)c(N)c1
HaCaT [1]
  viability at 10 µM: 66%

## CC1=C(/C=C/C(C)=C/C=C/C(C)=C/CO)C(C)(C)CCC1
HaCaT [2]
  Activity: inactive
[3]
  Activity: 18%
[4]
  Activity: 87%

## O=C1O[C@H]([C@@H](O)CO)C(O)=C1O [ASCORBIC ACID]
HaCaT [2]
  Activity: inactive
[5]
  IC50: 15.9 µM
[4]
  Activity: < 5%

## C=C(C)[C@@H]1CCC(C)=C[C@H]1c1c(O)cc(CCCCC)cc1O [CANNABIDIOL]
HaCaT [6]
  viability at 0.08 µM: 29%
HaCaT [7]
  viability at 0.16 µM: 36%
HaCaT [8]
  viability at 0.31 µM: 45%
HaCaT [9]
  viability at 0.63 µM: 52%
HaCaT [10]
  viability at 1.25 µM: 67%
HaCaT [11]
  viability at 2.5 µM: 74%
HaCaT [12]
  viability at 5 µM: 71%
HaCaT [1]
  viability at 10 µM: 68%
HaCaT [2]
  viability at 10 µM: 76%
[5]
  IC50: 33.3 µM
[4]
  Activity: < 5%
HaCaT [13]
  Activity: 10%
HaCaT [14]
  Activity: 14%
HaCaT [15]
  Activity: 26%
HaCaT [16]
  Activity: 39%
HaCaT [17]
  Activity: 44%
HaCaT [18]
  Activity: 40%
HaCaT [19]
  Activity: 10%
HaCaT [20]
  Activity: 12%
HaCaT [21]
  Activity: 15%
HaCaT [22]
  Activity: 17%
HaCaT [23]
  Activity: inactive
HaCaT [24]
  Activity: Active
HaCaT [25]
  Activity: Active
HaCaT [26]
  Activity: Active
HaCaT [27]
  Activity: Active
HaCaT [28]
  Activity: Active
HaCaT [29]
  Activity: Active

## O=c1c(O)c(-c2ccc(O)c(O)c2)oc2cc(O)ccc12 [FISETIN]
HaCaT [2]
  viability at 10 µM: 37%
[5]
  IC50: 10.1 µM
[4]
  Activity: 60%
HaCaT [15]
  Activity: 11%
HaCaT [18]
  Activity: 40%
HaCaT [30]
  Activity: 32%
HaCaT [22]
  Activity: 14%
